In patent publication US7008627B1, “Use of complexes for the preparation of compositions for the treatment of sensitive skin, preparation process and hypoallergenic compositions” (Johnson & Johnson Consumer France, priority 1996, dated 2006):
“And” between values parts separate entries of the source, which are not always exact repeats. Identical values can stand only once.

Key:
TNF [1] = assay: Production of TNF by keratinocytes after stimulation by IL-4 and IgE-containing immune complexes; assay type: cell-based, human
Protocol: (§1) To evaluate the allergic inflammation, the cells are activated by IL-4, which induces the CD23 receptor, and then by IgE-containing immune complexes. In all cases, the cellular supernatants are analysed after the activation.
(§2) The following products were used during this study: Escherichia coli LPS (Sigma), used at 1 μg/ml. IFN-γ and IL-4 are sourced from Immugenex (Los Angeles Calif.) and are used respectively at 1000 U/ml and 10 ng/ml, the monoclonal IgEs are sourced from Stallergene (Fresnes, France) and the anti-IgEs are from Nordic (Tilburg, Holland).
(§3) The confluent keratinocyte cultures are trypsinized and transferred into 24-well plates in fresh medium at the cellular density of 10^5 cells/ml/well. If appropriate, in the case of stimulation by IL-4, the presence of the IgE receptor (CD23) at the surface of the cells is verified by immunolabeling.
(§4) The cells are activated by the combination of IFN-γ and LPS for 3 to 4 days and the supernatants of these cultures are then recovered in order to quantitatively determine the nitrogeneous derivatives and TNF-α. Likewise, during stimulation by IgE, the cells are first activated by IL-4, so as to induce the CD23, and are then subsequently cultured and stimulated by the IgE-containing immune complexes for 3 to 5 days before recovering the different supernatants. In all the cases, cellular viability is achieved on conclusion of these cultures. In the specific case of macrophages, a long-term (7 to 12 days) viability study was carried out, so as to determine the protective effects of these products. Quantitative determination of the nitrogenous derivatives is carried out using the Griess approach and the TNF level is measured by using quantitative determination kits from Medgënix (Fleurus, Belgium).
(§5) On completion of this culturing period, 30 to 80% of the keratinocytes and of the macrophages express CD23. The individual variations are in no case the reflection of a different allergic situation between these individuals. […]

[2] = system: nitro derivatives (NO2^−); assay: Production of nitro derivatives by macrophages after stimulation by IFN-γ + LPS; assay type: cell-based, human; details: for Production of nitro derivatives (NO2^−), value between brackets: Table 5A, macrophages not stimulated by IFN-γ + LPS, + 10 mg/ml of the product; for effect on the production of nitro derivatives: macrophages stimulated by IFN-γ and LPS
Source text: (§6) The activities of the test products are therefore investigated with respect to human macrophage and keratinocyte cultures which are or are not stimulated by intereferon-γ+lipopolysaccharide (non-specific inflammation or by IL-4 (allergic inflammation). This type of stimulation places the cells in the context of a pro-oxidizing response (generation of NO or superoxide anion free radicals, which can be evaluated by measuring the production of nitrogeneous derivatives) and an immuno-inflammatory response (production of cytokines such as TNF-α).
as §2
(§7) The macrophage cells are obtained from the peripheral blood of normal donors (non-allergic). The mononuclear cells are isolated on a ficoll gradient and the ring of lymphoid cells is recovered and washed three times and the cells are then cultured so as to cause the macrophage cells to adhere. These cells are recovered after adhering for 1 hour and are cultured (10^6 cells/ml/well). If appropriate, in the case of stimulation by IL-4, the presence of the IgE receptor (CD23) at the surface of the cells is verified by immunolabelling.
as §4
(§8) In this study, the product H37 (10 mg/ml) is added 30 min before stimulation by IFN-γ+LPS.
(§9) In this study, the products (10 mg/ml or 1/100 v/v) are added 30 min before stimulation by IFN-γ+LPS. In none of the cases have these products shown a cytotoxic activity.

TNF [3] = assay: Production of TNF by keratinocytes after stimulation by IFN-γ + LPS; assay type: cell-based, human; details: for Production of TNF: keratinocytes stimulated by IFN-γ + LPS, Expt-1 to Expt-4; for effect on the production of TNF: keratinocytes stimulated by IFN-γ and LPS
Source text: as §6, §2, §3, §4, §8, §9

[4] = system: nitro derivatives (NO2^−); assay: Production of nitro derivatives by keratinocytes after stimulation by IFN-γ + LPS; assay type: cell-based, human; details: for Production of nitro derivatives (NO2^−), value between brackets / Production of nitro derivatives (NO2^−): Table 5A, + 10 mg/ml of the product; for Production of nitro derivatives (NO2^−), value between brackets: keratinocytes not stimulated by IFN-γ + LPS; for Production of nitro derivatives (NO2^−): keratinocytes stimulated by IFN-γ + LPS, Expt-1 to Expt-4; for effect on the production of nitro derivatives / NO: keratinocytes stimulated by IFN-γ and LPS
Source text: as §6, §2, §3, §4, §8, §9

TNF [5] = assay: Production of TNF by macrophages after stimulation by IL-4 and IgE-containing immune complexes; assay type: cell-based, human
Protocol: as §1, §2
as §7, with “If appropriate, in the case of stimulation by IL-4, the presence of the IgE receptor (CD23) at the surface of the cells is verified by immunolabelling.” left out
(§10) The cells are activated by the combination of IFN-γ and LPS for 3 to 4 days and the supernatants of these cultures are then recovered in order to quantitatively determine the nitrogeneous derivatives and TNF-α. […] Quantitative determination of the nitrogenous derivatives is carried out using the Griess approach and the TNF level is measured by using quantitative determination kits from Medgënix (Fleurus, Belgium). […]

[6] = system: keratinocytes and macrophages; assay: Overall anti-inflammatory activity (non-specific and allergic) on stimulated keratinocytes and macrophages; assay type: cell-based, human; details: conclusion from the IFN-γ + LPS (non-specific) and IL-4/IgE (allergic) models
Source text: as §6, §1
The cells are activated by the combination of IFN-γ and LPS for 3 to 4 days and the supernatants of these cultures are then recovered in order to quantitatively determine the nitrogeneous derivatives and TNF-α. […] Quantitative determination of the nitrogenous derivatives is carried out using the Griess approach and the TNF level is measured by using quantitative determination kits from Medgënix (Fleurus, Belgium).

TNF [7] = assay: Production of TNF by macrophages after stimulation by IFN-γ + LPS; assay type: cell-based, human; details: for effect on the production of TNF: macrophages stimulated by IFN-γ and LPS
Source text: as §6, §2, §7
as §4, with “In all the cases, cellular viability is achieved on conclusion of these cultures. In the specific case of macrophages, a long-term (7 to 12 days) viability study was carried out, so as to determine the protective effects of these products.” left out, “Belgium). […]” for “Belgium).”

[8] = system: nitro derivatives (NO2^−); assay: Production of nitro derivatives by macrophages after stimulation by IL-4 and IgE-containing immune complexes; assay type: cell-based, human; details: for Production of nitro derivatives (NO2^−): macrophages stimulated by IgE-containing immune complexes (IL-4), Expt-1 to Expt-4
Protocol: as §1, §2, §7, §4
On completion of this culturing period, 30 to 80% of the keratinocytes and of the macrophages express CD23. The individual variations are in no case the reflection of a different allergic situation between these individuals.
After the CD23 has been taken up by IgE-containing immune complexes, the production of a large number of mediators and cytokines (in particular TNF) and of products resulting from the oxidative metabolism, such as nitrogenous derivatives, is induced. This stimulation redefines in vitro an allergic-type inflammatory reaction.
as §5

keratinocytes = assay: Dose effect of K18 on the inflammatory functions of the keratinocytes (FIG. 1); assay type: cell-based, human
Protocol: FIG. 1: Dose effect of carboxymethyl-β-glucan with respect to the inflammatory functions of the keratinocytes.
Consequently, the effects of the product K18 were evaluated as a function of the dose. The results are illustrated in FIG. 1.

[9] = system: nitro derivatives (NO2^−); assay: Production of nitro derivatives by keratinocytes after stimulation by IL-4 and IgE-containing immune complexes; assay type: cell-based, human
Protocol: as §1, §2, §3, §10

[10] = system: mixed lympho-epidermal cultures (MLEC); assay: Summary table: anti-allergic activity, mixed lympho-epidermal cultures (MLEC), lymphocyte proliferation; assay type: cell-based; details: result in words
Source text: The activity of the components is also confirmed on mixed lympho-epidermal cultures (MLEC).
In the skin, Langherans cells indeed play an essential role in the […] of the antigen and keratinocytes generate factors which are involved in the immune response, thus constituting a cutaneous immune system. MLECs make it possible to determine the immuno-modulatory properties of substance by measuring the lymphocyte proliferation induced by the antigen-presenting allogenic epidermal cells, with or without treatment by the substance.

PGE2 = assay: Summary table: anti-inflammatory activity, PGE2; assay type: cell-based; details: result in words
Source text: (§11) It is possible in particular to operate on keratinocytes and macrophage cells because these are cells which are essential for the development of a local inflammatory reaction. Moreover, macrophages are particularly advantageous cells because, due to the fact that these are resident cells in the skin, they regulate not only local inflammatory reactions but they also regulate the immune responses by their ability to present the antigen and to produce a great number of cytokines which regulate local immunity. These macrophages are also involved in communications with the circulatory system which can, if appropriate, mobilize different cell types (monocytes, neutrophils, eosinophils and T lymphocytes), thus increasing the non-specific and specific defensive power of the tissue under consideration.
as §6

TNF-α = assay: Summary table: anti-inflammatory activity, TNF-α; assay type: cell-based, human; details: result in words
Source text: as §11, §6

catalase = assay: Summary table: anti-free radicals activity, catalase; details: result in words
Source text: (§12) Enzymes which are active in endogenous defence systems against free radicals are, for example, SOD (or superoxide -disumtase), catalase or glutathione peroxidase; attempts will be made to stimulate the production of these enzymes or they can be introduced exogeneously.

glutathione peroxidase = assay: Summary table: anti-free radicals activity, glutathione peroxidase; details: result in words
Source text: as §12

IL-1α = assay: Summary table: anti-inflammatory activity, IL-1α; assay type: cell-based; details: result in words
Source text: as §11, §6

LTB4 = assay: Summary table: anti-inflammatory activity, LTB4; assay type: cell-based; details: result in words
Source text: as §11, §6

NO = assay: Summary table: anti-free radicals activity, NO; assay type: cell-based, human; details: result in words
Source text: as §11, §6

[11] = system: peroxidation of the lipids; assay: Summary table: anti-free radicals activity, peroxidation of the lipids; details: result in words
[12] = Table 5B, + 10 mg/ml of the product
[13] = Table 6A, + 10 mg/ml of the product
[14] = keratinocytes stimulated by IL-4

poly-β(1→3)-glucopyranose [K17]
Production of TNF, value between brackets (TNF [1]; Table 6B, keratinocytes not stimulated by IgE-containing immune complexes, + product): 35 pg/mL and 31 pg/mL and 32 pg/mL and 40 pg/mL
Production of TNF (TNF [1]; Table 6B, keratinocytes stimulated by IL-4 / IgE-containing immune complexes, + product, Expt-1 to Expt-4): 185 pg/mL and 111 pg/mL and 120 pg/mL and 132 pg/mL
Production of nitro derivatives (NO2^−), value between brackets [2]: 2 μM and 1 μM and 1.5 μM and 2 (2) μM
effect on the production of nitro derivatives [2]: high ability to inhibit
Production of TNF, value between brackets (TNF [3]; Table 5B, keratinocytes not stimulated by IFN-γ + LPS, + 10 mg/ml of the product, ND = non-detectable): 95 pg/mL
Production of TNF (TNF [3]; [12]): 125 pg/mL and 98 pg/mL and 100 pg/mL and 70 pg/mL
effect on the production of TNF (TNF [3]): efficiently inhibit
Production of nitro derivatives (NO2^−), value between brackets [4]: 2 µM and 1 µM
Production of nitro derivatives (NO2^−) [4]: 15 µM and 16 µM and 8 µM
effect on the production of nitro derivatives / NO [4]: high ability to inhibit
Production of TNF, value between brackets (TNF [5]; Table 6B, macrophages not stimulated by IgE-containing immune complexes, + product): 45 pg/mL and 41 pg/mL and 32 pg/mL
anti-inflammatory activity [6]: only has a non-specific anti-inflammatory activity
Production of TNF (TNF [7]; Table 5B, macrophages stimulated by IFN-γ + LPS, + 10 mg/ml of the product, Expt-1 to Expt-4): 605 pg/mL and 902 pg/mL and 970 pg/mL and 695 pg/mL
effect on the production of TNF (TNF [7]): efficiently inhibit
Production of nitro derivatives (NO2^−) [8, 13]: 16 µM and 17 µM and 19 µM and 30 µM

Carboxymethyl-β-glucan [K18]
effect on the production of TNF (TNF [1]; [14]): inhibitory activity
generation of TNF as a function of the dose (keratinocytes): inhibits, in a dose-dependent way
generation of nitro derivatives as a function of the dose (keratinocytes): inhibits, in a dose-dependent way
Production of nitro derivatives (NO2^−), value between brackets [2]: 1 µM and 2 µM
effect on the production of nitro derivatives [2]: high ability to inhibit
Production of nitro derivatives (NO2^−), value between brackets ([9]; Table 6A, keratinocytes not stimulated by IgE-containing immune complexes, + 10 mg/ml of the product): 2 µM and 4 µM
effect on the production of nitro derivatives [9, 14]: inhibitory activity
Production of TNF (TNF [3]; [12]): 130 pg/mL and 95 pg/mL and 85 pg/mL and 82 pg/mL
effect on the production of TNF (TNF [3]): efficiently inhibit
Production of nitro derivatives (NO2^−), value between brackets [4]: 1 µM
Production of nitro derivatives (NO2^−) [4]: 13 µM and 14 µM and 11 µM and 7 µM
effect on the production of nitro derivatives / NO [4]: high ability to inhibit
effect on the production of TNF (TNF [5]; macrophages stimulated by IL-4): inhibitory activity
anti-inflammatory activity [6]: non-specific and allergic-type anti-inflammatory activity
effect on the production of TNF (TNF [7]): efficiently inhibit
Production of nitro derivatives (NO2^−), value between brackets ([8]; Table 6A, macrophages not stimulated by IgE-containing immune complexes, + 10 mg/ml of the product): 2 µM and 4 µM
Production of nitro derivatives (NO2^−) [8, 13]: 7 µM and 6 µM and 10 µM
effect on the production of nitro derivatives ([8]; macrophages stimulated by IL-4): inhibitory activity

β-Glucan
Anti-allergic: MLEC [10]: no effect
Anti-inflammatory: PGE2 (PGE2): inhibition
Anti-inflammatory: TNF-α (TNF-α): inhibition
Anti-free radicals: catalase (catalase): stimulation
Anti-free radicals: glutathione peroxidase (glutathione peroxidase): stimulation
Anti-inflammatory: IL-1α (IL-1α): inhibition
Anti-inflammatory: LTB4 (LTB4): no effect
Anti-free radicals: NO (NO): inhibition
Anti-free radicals: peroxidation of the lipids [11]: no effect
